System: GUMC-403
Test: viability at highest tested concentration (max response) relative to DMSO (% of DMSO control); higher = less cytotoxic
Settings: library / dose series: MIPE library, 11-point 1:3 dilution, 48 h
How it was run: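 Viability at the highest tested concentration is given relative to vehicle control. For this, conditionally reprogrammed patient-derived GUMC-403 papilloma cells at 700/well in 1536-well plates were exposed to 23 nL of pinned compound for 48 h. Luminescence from CellTiter-Glo was read on a ViewLux and scaled between empty wells (0%) and vehicle wells (100%).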

Row | Compound | viability (top concentration 46.1 µM) | also measured
1 | CN(C)C(=O)C(CCN1CCC(O)(c2ccc(Cl)cc2)CC1)(c1ccccc1)c1ccccc1 | 103 | 
2 | O=C(O)CCCCC(CCSCc1ccccc1)SCc1ccccc1 (stereo unspecified) | 130 | 
3 | C[C@H](NC(=O)C(=O)Nc1ccccc1C(C)(C)C)C(=O)N[C@@H](CC(=O)O)C(=O)COc1c(F)c(F)cc(F)c1F | 68.7 | 
4 | O=C(N[C@H]1CN2CCC1CC2)c1ccc(Cl)cc1 | 121 | 
5 | O=C(Nc1ccc(F)c(C(F)(F)F)c1)Nc1nnc(-c2ccncc2)s1 | 94 | 
6 | CC(C)(C)c1cc(C=C(C#N)C#N)cc(Br)c1O | 101 | 
7 | O=C(NCCO[N+](=O)[O-])c1cccnc1 | 108 | 
8 | COc1ccc(C(=O)CC(=O)c2ccc(C(C)(C)C)cc2)cc1 | 126 | 
9 | COc1cc(CNC(=O)CCCC/C=C/C(C)C)ccc1O | 128 | 
10 | CN(C)C(=O)COC(=O)Cc1ccc(OC(=O)c2ccc(NC(=N)N)cc2)cc1 | 62.7 | 
11 | O=C(Nc1nnc(-c2ccco2)o1)c1cc(-c2ccccc2)nc2ccccc12 | 89.1 | 
12 | COc1ccc(/C=C\c2cc(OC)c(OC)c(OC)c2)cc1O | 93.7 | 
13 | CC1=C(CC(=O)O)c2cc(F)ccc2/C1=C\c1ccc([S+](C)[O-])cc1 (stereo unspecified) | 59.8 | 
14 | O=c1cc(-c2ccc(O)c(O)c2)oc2cc(O)cc(O)c12 | 115 | 
15 | Cc1ccc([S+](=O)([O-])OCC(=O)Nc2ccc(C(=O)O)c(O)c2)cc1 | 91.4 | 
16 | Oc1cc(-c2nc(-c3ccccc3)[nH]c2-c2ccncc2)ccc1Cl | 91.4 | 
17 | C/C1=C2/[N]3[Co+]456([OH])<-[N]7=C1[C@@H](CCC(N)=O)C(C)(C)/C7=C/C1=[N]->4C(=C(/C)C4=[N]->5[C@@](C)([C@H]3[C@H](CC(N)=O)[C@@]2(C)CCC(=O)NC[C@@H](C)OP(=O)([O-])O[C@H]2[C@@H](O)[C@@H](n3c[n]->6c5cc(C)c(C)cc53)O[C@@H]2CO)[C@@](C)(CC(N)=O)[C@@H]4CCC(N)=O)/[C@@](C)(CC(N)=O)[C@@H]1CCC(N)=O | 91.2 | 
18 | COC(c1ccccc1)(c1ccccc1)[C@H](Oc1nc(C)cc(C)n1)C(=O)O | 136 | 
19 | CC(/C=C1\SC(=S)N(CC(=O)O)C1=O)=C\c1ccccc1 | 132 | 
20 | COc1cc2nc(N3CCN(C(=O)C4CCCO4)CC3)nc(N)c2cc1OC (stereo unspecified) | 126 | 
21 | CCCCC(C)(C)[C@H](O)/C=C/[C@H]1[C@H](O)CC(=O)[C@@H]1C/C=C\CCCC(=O)O | 104 | 

Row | Compound | viability (top concentration 46.1 µM) | also measured
22 | Nc1ccn([C@H]2CS[C@@H](CO)O2)c(=O)n1 |  | viability (top concentration 92.2 µM): 106
23 | C[C@H]1C[C@H]2[C@@H]3CC[C@](O)(C(=O)CO)[C@@]3(C)C[C@H](O)[C@@H]2[C@@]\4(C)/C=C\C(=O)\C=C14 | 121 | 
24 | NC[C@H]1O[C@H](O[C@@H]2[C@H](O)[C@@H](O[C@H]3O[C@H](CO)[C@@H](O)[C@H](N)[C@H]3O)[C@H](N)C[C@@H]2N)[C@H](O)[C@@H](O)[C@@H]1O | 103 | 
25 | CC(=O)C\1=C(/C)C2=CN=C(NC3=CC=C(C=N3)N4CCNCC4)N=C2N(C5CCCC5)C1=O | 93 | 
26 | O=C(O)c1ccc(O)c2ncc(N3CCOCC3)cc12 | 96 | 
27 | COc1cccc2c1CCCC2CCCN1CCN(C2CCCCC2)CC1 (stereo unspecified) | 112 | 
28 | Cc1noc(-c2ccc(CSCCC(=O)O)cc2)c1NC(=O)OC(C)c1ccccc1Cl (stereo unspecified) | 106 | 
29 | C[S+](=O)([O-])Nc1ccc([N+](=O)[O-])cc1Oc1ccccc1 | 113 | 
30 | OC(CN1CCN(c2cccc(Cl)c2)CC1)C(c1ccccc1)c1ccccc1 (stereo unspecified) | 92 | 
31 | O=C(O)CCCc1c[nH]c2ccccc12 | 107 | 
32 | NC(=O)c1cccc2cn(-c3ccc([C@@H]4CCCNC4)cc3)nc12 | 98.4 | 
33 | CN1c2ccccc2C(=O)N2CCc3c([nH]c4ccccc34)C21 (stereo unspecified) | 102 | 
34 | CC(CCc1ccc(O)cc1)NCCc1ccc(O)c(O)c1 (stereo unspecified) | 105 | 
35 | CC(C)(OCc1nn(Cc2ccccc2)c2ccccc12)C(=O)O | 113 | 
36 | COc1ccc2cc([C@H](C)C(=O)O)ccc2c1 | 97.3 | 
37 | COc1nccc(-c2c(-c3ccc(F)cc3)ncn2C2CCNCC2)n1 | 131 | 
38 | CCC(C)N1\N=C/N(C1=O)C2=CC=C(C=C2)N3CCN(CC3)C4=CC=C(OC[C@H]5CO[C@@](C[N]6C=NC=N6)(O5)C7=CC=C(Cl)C=C7Cl)C=C4 (stereo partly specified) | 101 | 
39 | CCN(CCO)CCCC(C)Nc1ccnc2cc(Cl)ccc12 (stereo unspecified) | 116 | 
40 | Clc1ccc(C(Cn2ccnc2)OCc2ccc(Sc3ccccc3)cc2)c(Cl)c1 (stereo unspecified) | 118 | 
41 | CN[C@H]1CCC2=CC(=C(OC)C(=C2C/3=C/C=C(OC)\C(=O)/C=C13)OC)OC | 100 | 
42 | O=C1Nc2ccc(I)cc2/C1=C/c1cc(Br)c(O)c(Br)c1 | 146 | 

Row | Compound | viability (top concentration 46.1 µM) | also measured
43 | CN(C(Cc1ccc(O[S+](=O)([O-])c2cccc3cnccc23)cc1)C(=O)N1CCN(c2ccccc2)CC1)[S+](=O)([O-])c1cccc2cnccc12 (stereo unspecified) | 83.2 | 
44 | O=c1cc(O)c(Cl)c[nH]1 | 106 | 
45 | C/C(O)=C(\C#N)C(=O)Nc1cc(Br)ccc1Br | 101 | 
46 | CN(C)[C@@H](CCOc1cccc2ccccc12)c1ccccc1 | 92.3 | 
47 | CCN(C(=O)C/1=C(O)/C2=C(C=CC=C2Cl)N(C)C1=O)C3=CC=CC=C3 | 119 | 
48 | CN[C@@H]1Cc2cccc3[nH]c(=O)n(c23)C1 | 112 | 
49 | Clc1ccc(C(c2ccccc2Cl)C(Cl)Cl)cc1 (stereo unspecified) | 100 | 
50 | COC(=O)C1=C(C)NC(C)=C(C(=O)OCCN2CCN(C(c3ccccc3)c3ccccc3)CC2)C1c1cccc([N+](=O)[O-])c1.Cl.Cl (stereo unspecified) | 86.5 | 
51 | CCCc1cc(C(N)=S)ccn1 | 112 | 
52 | CO[C@@H]1[C@@H](OC(N)=O)[C@@H](O)[C@H](OC2=CC=C3\C(=C(NC(=O)C4=CC=C([O-])C(=C4)CC=C(C)C)/C(=O)OC3=C2C)O)OC1(C)C | 108 | 
53 | Cc1ccc(NC(=O)c2ccc(CN3CCN(C)CC3)cc2)cc1Nc1nccc(-c2cccnc2)n1 | 127 | 
54 | CN1CCCC(CC1)N2\N=C(CC3=CC=C(Cl)C=C3)/C4=C(C=CC=C4)C2=O (stereo unspecified) | 78.8 | 
55 | O=[S+]([O-])(CCSSCC[S+](=O)([O-])[O][Na])[O][Na] | 119 | 
56 | O=C(CCc1ccc(O)cc1)c1c(O)cc(O)cc1O[C@@H]1O[C@H](CO)[C@@H](O)[C@H](O)[C@H]1O | 98.5 | 
57 | OC(=O)C1=CC=C(NC2=NC3=C(C\N=C(/C4=CC(=CC=C34)Cl)C5=C(F)C=CC=C5F)C=N2)C=C1 | 131 | 
58 | O=C(Nc1nc2ccccc2n1CCN1CCOCC1)c1cccc([N+](=O)[O-])c1 | 124 | 
59 | CCCCCN(C)CCC(O)(P(=O)([O-])O)P(=O)(O)O | 106 | 
60 | CC12CC3CC(C)(C1)CC(N)(C3)C2 | 117 | 
61 | C[C@H](c1ccc(F)cc1CCCC(=O)O)N(c1cc(F)ccc1F)[S+](=O)([O-])c1ccc(Cl)cc1 | 93.9 | 
62 | CC\1=C(C(\N=C(/N1)C2=CC(=NC=C2)Cl)C3=C(F)C=C(Cl)C=C3)/C(=O)NC4=C(F)C=C5[NH]N=CC5=C4 (stereo unspecified) | 101 | 
63 | CC/C=C\C[C@H]1C(=O)CC[C@@H]1CC(=O)OC | 120 | 

Row | Compound | viability (top concentration 46.1 µM) | also measured
64 | O=[N+]([O-])c1ccc(Nc2ccccc2-c2ccccc2)c2nonc12 | 106 | 
65 | COc1c(C)c2c(c(O)c1C/C=C(\C)CCC(=O)O)C(=O)OC2 | 106 | 
66 | CCC(=O)O[C@@]1(CC[C@H]2[C@@H]3CCC/4=C/C(=O)CC[C@]4(C)[C@H]3CC[C@]12C)C(=O)CO | 119 | 
67 | Clc1ccc(-c2nc3sccn3c2/C=N/OCc2ccc(Cl)c(Cl)c2)cc1 | 85.8 | 
68 | CC(=O)N[C@@H]1[C@@H](NC(N)=N)\C=C(/O[C@H]1[C@H](O)[C@H](O)CO)C(O)=O | 129 | 
69 | COc1cc2c(Oc3ccc4[nH]c(C)cc4c3F)ncnc2cc1OCCCN1CCCC1 | 64.4 | 
70 | CCOC(=O)C(C)(C)Oc1ccc(Cl)cc1 | 110 | 
71 | C[C@@H]1CCN(C(=O)CC#N)C[C@@H]1N(C)c1ncnc2[nH]ccc12 | 79.1 | 
72 | C/C(=C\c1csc(C)n1)[C@@H]1C[C@@H]2O[C@]2(C)CCC[C@H](C)[C@H](O)[C@@H](C)C(=O)C(C)(C)[C@@H](O)CC(=O)O1 | 102 | 
73 | CC(C)(N)C(=O)N[C@H](COCc1ccccc1)C(=O)N1CCC2(CC1)CN([S+](C)(=O)[O-])c1ccccc12 | 103 | 
74 | CC[C@@]1(O)C[C@H](O[C@H]2C[C@H](N(C)C)[C@H](O[C@H]3C[C@H](O)[C@H](O[C@H]4CCC(=O)[C@H](C)O4)[C@H](C)O3)[C@H](C)O2)c2c(cc3c(c2O)C(=O)c2c(O)cccc2C3=O)[C@H]1C(=O)OC | 83.4 | 
75 | CO[C@H]1/C=C/O[C@@]2(C)Oc3c(C)c(O)c4c(O)c(c(/C=N/N5CCN(C)CC5)c(O)c4c3C2=O)NC(=O)/C(C)=C\C=C\[C@H](C)[C@H](O)[C@@H](C)[C@@H](O)[C@@H](C)[C@H](OC(C)=O)[C@@H]1C |  | viability (top concentration 11.1 µM): 107
76 | COc1ccc2cccc(CCNC(C)=O)c2c1 | 108 | 
77 | CN(C)CCOc1ccc(-c2nc(-c3ccncc3)c(-c3ccc4c(c3)CC/C4=N\O)[nH]2)cc1 | 94.9 | 
78 | O=C(O)Cn1nnc(-c2cc(N3CCC(Oc4cc(F)ccc4Br)CC3)no2)n1 | 128 | 
79 | CCOC(=O)/C=C/[C@H](C[C@@H]1CCNC1=O)NC(=O)[C@@H](CC(=O)[C@@H](NC(=O)c1cc(C)on1)C(C)C)Cc1ccc(F)cc1 | 142 | 
80 | O=C([O-])[C@H](CC(=O)N1C[C@H]2CCCC[C@H]2C1)Cc1ccccc1 | 144 | 
81 | NC(=O)NO | 51.9 | 
